Assays:
Assay in all cases: relative viability (nuclei count vs DMSO), 5 days (fraction); higher = more cells survive
VE-821 + Bortezomib = compound: CS(=O)(=O)c1ccc(-c2cnc(N)c(C(=O)Nc3ccccc3)n2)cc1 [VE-821] + CC(C)C[C@H](NC(=O)[C@H](Cc1ccccc1)NC(=O)c1cnccn1)B(O)O [Bortezomib] (partner 0.002 µM)
Procedure, shortened: (§1)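 Cells from lung cancer lines were seeded into 1536-well plates and, one day later, dosed by pin tool. Treatments were either a single drug or a fixed dose of an anchor drug with five library-drug doses (not always all listed) in √10 steps. After 5 days, nuclei were stained in a one-step fixation (final 0.05% Triton X-100, 1% formaldehyde, 1 ug/ml Hoechst) and counted on 4× images, and relative viability is the treated-to-vehicle nuclei ratio, as the median of duplicate plates.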

VE-821 + Linsitinib = compound: CS(=O)(=O)c1ccc(-c2cnc(N)c(C(=O)Nc3ccccc3)n2)cc1 [VE-821] + C[C@]1(O)C[C@@H](c2nc(-c3ccc4ccc(-c5ccccc5)nc4c3)c3c(N)nccn32)C1 [Linsitinib] (partner 1 µM)
Procedure, shortened: as §1

VE-821 + Phenformin = compound: CS(=O)(=O)c1ccc(-c2cnc(N)c(C(=O)Nc3ccccc3)n2)cc1 [VE-821] + N=C(N)NC(=N)NCCc1ccccc1 [Phenformin] (partner 250 µM)
Procedure, shortened: as §1

Ruxolitinib + Dasatinib = compound: N#CC[C@H](C1CCCC1)n1cc(-c2ncnc3[nH]ccc23)cn1 [Ruxolitinib] + Cc1nc(Nc2ncc(C(=O)Nc3c(C)cccc3Cl)s2)cc(N2CCN(CCO)CC2)n1 [Dasatinib] (partner 0.075 µM)
Procedure, shortened: as §1

Cell Line | relative viability (VE-821 + Bortezomib; first compound 0.08 µM) | relative viability (VE-821 + Bortezomib; first compound 0.253 µM) | relative viability (VE-821 + Bortezomib; first compound 0.8 µM) | relative viability (VE-821 + Bortezomib; first compound 2.53 µM) | relative viability (VE-821 + Bortezomib; first compound 8 µM) | relative viability (VE-821 + Linsitinib; first compound 0.08 µM) | relative viability (VE-821 + Linsitinib; first compound 0.253 µM) | relative viability (VE-821 + Linsitinib; first compound 0.8 µM) | relative viability (VE-821 + Linsitinib; first compound 2.53 µM) | relative viability (VE-821 + Linsitinib; first compound 8 µM) | relative viability (VE-821 + Phenformin; first compound 0.08 µM) | relative viability (VE-821 + Phenformin; first compound 0.253 µM) | relative viability (VE-821 + Phenformin; first compound 0.8 µM) | relative viability (VE-821 + Phenformin; first compound 2.53 µM) | relative viability (VE-821 + Phenformin; first compound 8 µM) | relative viability (Ruxolitinib + Dasatinib; first compound 0.08 µM) | relative viability (Ruxolitinib + Dasatinib; first compound 0.253 µM) | relative viability (Ruxolitinib + Dasatinib; first compound 0.8 µM) | relative viability (Ruxolitinib + Dasatinib; first compound 2.53 µM) | relative viability (Ruxolitinib + Dasatinib; first compound 8 µM)
EBC-1 | 0.534 | 0.546 | 0.555 | 0.517 | 0.4 | 0.908 | 0.901 | 0.85 | 1.16 | 0.808 | – | – | – | – | – | – | – | – | – | –
NCI-H1623 | – | – | – | – | – | – | – | – | – | – | 0.564 | 0.557 | 0.449 | 0.575 | 0.497 | 0.591 | 0.512 | 0.488 | 0.699 | 0.474
NCI-H661 | 0.885 | 0.953 | 0.767 | 0.895 | 0.72 | 0.539 | 0.568 | 0.481 | 0.493 | 0.4 | 0.282 | 0.255 | 0.272 | 0.286 | 0.311 | 0.964 | 0.872 | 1.03 | 0.695 | 0.498
NCI-H596 | 1.21 | 1.02 | 1.08 | 1.09 | 1.09 | 1.1 | 1.18 | 1.03 | 1.15 | 0.94 | 0.78 | 0.635 | 0.735 | 0.871 | 0.631 | 0.581 | 0.654 | 0.585 | 0.575 | 0.496
IA-LM | 0.762 | 0.795 | 0.781 | 0.803 | 0.764 | 0.836 | 0.54 | 0.741 | 0.903 | 0.636 | – | – | – | – | – | – | – | – | – | –
LC-2-ad | 1.19 | 1.06 | 0.569 | 1.17 | 1.07 | 0.88 | 0.764 | 0.821 | 0.925 | 0.661 | 0.666 | 0.593 | 0.661 | 0.686 | 0.591 | – | 0.476 | 0.54 | 0.382 | 0.272
Calu-6 | 0.945 | 0.907 | 0.891 | 0.937 | 0.429 | 1 | 0.839 | 0.83 | 1.13 | 0.942 | – | – | – | – | – | – | – | – | – | –
NCI-H2126 | 1.22 | 1.04 | 1.11 | 1.04 | 1.09 | 0.805 | 0.652 | 0.589 | 0.715 | 0.627 | 0.565 | 0.494 | 0.51 | 0.514 | 0.409 | 0.599 | 0.526 | 0.715 | 0.616 | 0.453
NCI-H647 | 1.39 | 0.825 | 0.804 | 1.08 | 0.569 | 1.44 | 1.28 | 0.829 | 0.751 | 0.493 | 0.556 | 0.532 | 0.454 | 0.533 | 0.211 | 0.207 | 0.155 | 0.182 | 0.0851 | 0.106
NCI-H322M | 1.24 | – | 1.33 | 1.25 | 1.08 | 0.933 | – | 1 | 0.93 | 0.771 | 0.504 | 0.766 | 0.741 | 0.577 | 0.364 | 0.248 | 0.258 | 0.241 | 0.238 | 0.217
NCI-H358 | – | – | – | – | – | 0.812 | 0.777 | 0.723 | 1.09 | 0.469 | 0.386 | 0.311 | 0.352 | 0.373 | 0.281 | 0.189 | 0.131 | 0.175 | 0.135 | 0.164
NCI-H2342 | – | – | – | – | – | – | – | – | – | – | 0.756 | 0.663 | 0.548 | 0.508 | 0.475 | 0.315 | 0.299 | 0.341 | 0.31 | 0.319
LK-2 | – | – | – | – | – | 0.583 | 0.595 | 0.662 | 0.705 | 0.501 | 0.639 | 0.366 | 0.459 | 0.925 | 0.374 | 0.287 | 0.339 | 0.332 | 0.32 | 0.349
ChaGo-K-1 | 1 | 1.01 | 1.24 | 0.989 | 0.812 | – | – | – | – | – | 0.454 | 0.459 | 0.536 | 0.496 | 0.427 | 0.631 | 0.573 | 0.548 | 0.548 | 0.403
NCI-H1299 | 0.992 | 1 | 0.973 | 0.924 | 0.972 | 0.946 | 0.886 | 0.928 | 1.06 | 0.959 | – | – | – | – | – | – | – | – | – | –
NCI-H1703 | 0.335 | 0.346 | 0.339 | 0.289 | 0.22 | 1.42 | 0.51 | 0.649 | 0.93 | 0.629 | – | – | – | – | – | – | – | – | – | –
NCI-H522 | – | – | – | – | – | – | – | – | – | – | 0.675 | 0.593 | 0.662 | 0.555 | 0.654 | 0.751 | 1.03 | 0.916 | 0.919 | 0.731
NCI-H2170 | – | – | – | – | – | – | – | – | – | – | 0.416 | 0.399 | 0.358 | 0.412 | 0.359 | 0.691 | 0.681 | 0.627 | 0.599 | 0.483
NCI-H1650 | 0.194 | 0.195 | 0.339 | 0.187 | 0.213 | – | – | – | – | – | 0.496 | 0.422 | 0.363 | 0.3 | 0.21 | – | 0.265 | 0.343 | 0.252 | 0.29
SW 900 | – | – | – | – | – | – | – | – | – | – | 0.575 | 0.555 | 0.425 | 0.711 | 0.572 | 0.675 | 0.487 | 0.542 | 0.403 | 0.489
NCI-H1395 | – | – | – | – | – | 1.07 | 1.01 | 0.893 | 1.05 | 0.683 | 0.43 | 0.415 | 0.449 | 0.467 | 0.41 | 0.387 | 0.374 | 0.42 | 0.434 | 0.361
NCI-H1793 | – | – | – | – | – | 1.01 | 0.846 | 0.459 | 1.01 | 0.698 | 0.437 | 0.3 | 0.325 | 0.49 | 0.239 | 0.286 | 0.394 | 0.389 | 0.303 | 0.243
NCI-H1944 | – | – | – | – | – | 1.26 | 1.16 | 0.832 | 1.3 | 0.663 | 0.235 | 0.2 | 0.172 | 0.238 | 0.157 | 0.204 | 0.17 | 0.209 | 0.168 | 0.167

— the supplement of paper PMC10307832
